Literature values, collected in patent publication US20040052855A1, “Microparticles of biodegradable polymer encapsulating a biologically active substance and sustained release pharmaceutical formulations containing same” (priority 2003, published 2004).

Conditions: in water at 20-25° C.

| SMILES | solubility in water |
| --- | --- |
| ClCCl [dichloromethane] | 1.32 % (by weight) |
| CCOC(C)=O [ethyl acetate] | 8.70 % (by weight) |
